Reference: US5476933A, “Azepine synthesis via a diels-alder reaction” (priority 1994, dated 1995)

How the values were obtained:
[1] = tested on: rodents; settings: literature; cited from earlier work
[2] = molecular target: PCP receptor; settings: Wong et al. 1986; cited from earlier work
[3] = molecular target: T1, glycine binding site of the NMDA receptor (Rattus norvegicus, UniProt P35439); assay: 1 μM glycine-stimulated [3H]-MK-801 binding, rat brain membrane homogenates; settings: rat brain homogenates, [3H]-MK-801 binding, 1 μM glycine; read-out: IC50
T1 construct: rat brain membrane homogenates which are enriched in NMDA receptors; tissue Pel-Freez, Rogers, Ark; host or cells: whole rat brain, washed membrane homogenate
Experimental: ^a Experiments described herein utilizing rat brain homogenates and a
The assay is conducted using rat brain membrane homogenates which are enriched in NMDA receptors. The membranes are prepared as follows. Frozen rat brains (obtained from Pel-Freez, Rogers, Ark.) are homogenized in 15 volumes (w/v) of ice cold 0.32M sucrose. The homogenate is spun at 1,000×g for ten minutes. The supernatant is collected and spun for 20 minutes at 44,000×g. The pellet is suspended in 15 volumes of water (relative to original brain weight). The homogenate is again spun at 44,000×g for twenty minutes. The pellet is resuspended in 5 volumes of water and the suspension is freeze-thawed 2 times. After the final thaw cycle, the suspension is brought to 15 volumes with water and spun at 44,000×g for twenty minutes. The pellet is resuspended in 5 volumes of ice-cold 10 mM HEPES, and is titrated to pH 7.4 with KOH containing 0.04% Triton X-100. Membranes are incubated with the Triton/HEPES buffer at 37° C. for 15 minutes. The volume is then brought to 15 with ice-cold 10 mM HEPES, pH 7.4, and spun/washed three times with spins of 44,000×g between washes. The final pellet is suspended in three volumes of 50 mM HEPES, pH 7.4 and the protein concentration is determined with a standard dye-binding protein assay (Bio-Rad, Richmond, Calif.). The suspension is stored at -80° C. until used. Only HPLC grade water is used for all buffers and suspensions/washings. The extensive washings are necessary to remove as much endogenous glycine from the membrane preparation as possible.
Nonspecific binding is defined as the […] presence of PCP (final concentration: 100 μM). […] A 500 nM concentration (final) of 5,7-dichlorokynurenic (DCK) acid is added to all assay tubes. This concentration of the glycine antagonist DCK "buffers" most of the residual endogenous glycine that is not removed by the extensive washing steps that are carried out during the membrane preparation procedure.
The assays are incubated for 120 minutes at room temperature after which time the membrane-bound radioactivity is isolated from the free radioactivity by vacuum filtration through Whatman glass fiber filters that had been pretreated with 0.3% polyethyleneimine. Filtration is accomplished using a Brandel 48 well cell harvester. Filtered membranes are washed three times with 3 mL each of ice cold buffer. Filters are transferred to scintillation vials and 5 mL of scintillation cocktail is added. The vials are shaken overnight and the radioactivity is counted by liquid scintillation spectroscopy. The assays are done in triplicate and all experiments are conducted at least three times.
Inhibition dose response curves are constructed using increasing concentrations of glycine antagonists from 5 nM to 330 μM.
After constructing inhibition dose response curves and determination of glycine reversibility, Ki values for the glycine antagonists are calculated using the Cheng and Prusoff equation employing the experimentally determined IC50 values, the known concentration of glycine in the assay (1 μM) and the known affinity of glycine for the glycine binding site of the NMDA receptor (100 nM).
Binding Assays and In Vivo Studies.

[4] = crossing of the blood/brain barrier; settings: inferred from Ki and MES ED50
[5] = molecular target: T2, glycine/NMDA receptor (Rattus norvegicus, UniProt P35439); assay: electrophysiology using Xenopus oocytes; assay type: cell-based; settings: from electrophysiology using Xenopus oocytes unless otherwise noted; read-out: Ki
T2 construct: expressed in transfected cells; host or cells: Xenopus oocytes (RNA injected)

[6] = tested on: male Swiss/Webster mice; assay: maximum electroshock-induced seizure (MES) assay; assay type: in vivo, mouse; settings: Mus musculus, iv; anticonvulsant, MES in mice
Experimental: The anticonvulsant activity of the glycine antagonists may be assessed in the maximum electroshock-induced seizure (MES) assay in mice. […] The seizure stimulus parameters are 50 mA, 60 Hz, rectangular pulse, width 0.8 msec, duration 200 msec. Tonic hind limb extension observed after application of the electrical stimulus is recorded as occurrence of seizure.

[7] = tested on: pigeons; settings: literature; cited from earlier work
[8] = tested on: neurons in brain ischemia; settings: literature; cited from earlier work

Compound | PCP-like behavioral effects, in words [1] | Kd [2] | IC50 [3] | crossing the blood-brain-barrier, relative to 6,7-dichloro-5-nitro-1,4-dihydroquinoxaline-2,3-dione [4] | Ki [5] | ED50 [6] | katalepsy, in words [7] | neuroprotective efficacy, in words [8]
C[C@]12N[C@H](Cc3ccccc31)c1ccccc12 [MK-801] | adverse PCP-like behavioral side effects | ~3 nM |  |  |  |  |  | 
O=c1cc(O)c(=O)[nH]c2c1CCCC2 [Compound 61, 3-Hydroxy-6,7,8,9-tetrahydro-1H-1-benzazepine-2,5-dione] |  |  | 34000 nM | about 100 times | 1650 nM | 8 mg/kg |  | 
c1ccc(C2(N3CCCCC3)CCCCC2)cc1 [PCP, phencyclidine] | behavioral excitation (hyperlocomotion) |  |  |  |  |  | characteristic katalepsy in pigeons | neuroprotective efficacy both in vitro and in vivo
